Experiment: in vitro
Conditions: human, hela cells, % viability

| SMILES | viability at 28.5 h, 10 µM [%] |
| --- | --- |
| O=C(COC(=O)c1ccccc1NC(=O)c1ccccc1)c1ccc2ccccc2c1 [CBK265491] | 94.9 |
| Cc1noc(C)c1CS(=O)(=O)Cc1ccc(Cl)cc1 [CBK034194] | 84.9 |
| CCCCSc1nnc2nc(C)cc(C)n12 [CBK027588] | 98.2 |
| COc1cc(/C=N/NC(=O)CSc2n[nH]c(=O)[nH]c2=O)ccc1O [CBK263513] | 88.7 |
| Cc1nn(CC(=O)N2CCCC(C)C2)c(=O)c2cc3ccsc3n12 (stereo not shown) [CBK284041] | 81.7 |
| Cc1ncsc1C(=O)N1CCC(c2cccc(Cc3ccc(C(F)(F)F)cc3)n2)CC1 [CBK286216] | 99.5 |
| OC(CN1CCC(O)(c2ccccc2F)CC1)c1ccc(F)cc1 (stereo not shown) [CBK282492] | 87.2 |
| CCCn1nnn(-c2cc(OCCOCC)c(Cl)cc2Cl)c1=O [CBK026016] | 99 |
| COC(=O)CC1C(=O)NCCN1C(=S)NC(=O)c1ccc(-c2ccccc2)cc1 (stereo not shown) [CBK268711] | 105 |
| CCOC(=O)C1CCN(S(=O)(=O)c2ccc(NC(C)=O)c(Cl)c2)CC1 [CBK043748] | 93.5 |
| Cc1cc(NS(=O)(=O)c2ccc(Oc3ccc(-c4ccccc4)cc3)nc2)no1 [CBK295343] | 90.8 |
| O=C(Cc1c[nH]c2ccccc12)N1CCCC1c1cccc(Cc2ccccc2F)n1 (stereo not shown) [CBK285799] | 89.7 |
| CC(Cc1ccccn1)NC(=O)Cn1ccnc1 (stereo not shown) [CBK282069] | 104 |
| O=C(Nc1ccc(N2CCN(C(=O)c3cccs3)CC2)cc1)c1ccc(-c2cc3ccccc3oc2=O)cc1 [CBK267340] | 96.2 |
| CS(=O)(=O)c1ccc(CN2C(=O)CC3(CCN(C(=O)Cc4cccs4)CC3)C2=O)cc1 [CBK155013] | 100 |
| O=C(c1ccco1)N1CCN(c2cncc(-c3cc4ccccc4o3)n2)CC1 [CBK066044] | 101 |
| CC(C)CN1CCC[C@H]1c1nc(-c2ccc(-n3ccnc3)nc2)no1 [CBK288894] | 88.5 |
| COc1ccc(Cl)cc1NC(=O)C1CCCN1S(=O)(=O)c1ccc(F)cc1 (stereo not shown) [CBK069866] | 108 |
| CCN1CCN(c2ccc(NC(=O)c3ccc(-c4cc5ccccc5oc4=O)cc3)cc2Cl)CC1 [CBK266700] | 84.6 |
| O=C(O)CCCn1cc(NC(=O)Cc2ccccc2)cn1 [CBK269821] | 93.9 |
| O=c1[nH]c2ccc(Cl)cc2c(-c2ccccc2)c1N1CCN(Cc2ccc3c(c2)OCO3)CC1 [CBK265776] | 92.3 |
| CCc1cc2c(=O)c(-c3nc(C)cs3)c(CCC(=O)O)oc2cc1O [CBK264838] | 108 |

| SMILES | viability at 28.5 h, 10 µM [%] |
| --- | --- |
| CC(C)COC(=O)CCNc1n[nH]c(=O)[nH]c1=O [CBK293920] | 86.2 |
| COc1cccc(-c2ccc3c(c2)[nH]c(=O)n3C2CCN(C(=O)c3ccc(C)c(OC)c3)CC2)c1 [CBK153141] | 102 |
| COC(=O)c1cc(C#N)c(=O)n(CC(=O)N(C)Cc2ccsc2)c1 [CBK297788] | 115 |
| c1ccc2oc([C@H]3CCN(C4CCOCC4)C3)nc2c1 [CBK289388] | 92.3 |
| COc1ccc(-c2nc3cc(C(C)C)ccc3o2)cc1NC(=O)Cc1ccc(Cl)cc1 [CBK266409] | 96.9 |
| O=C(CCC1CCCCC1)Nc1c[nH]c(=O)[nH]c1=O [CBK287867] | 90.4 |
| Cc1ccc(Nc2nc(CSc3nnc(-c4ccccc4)o3)cs2)cc1 [CBK268455] | 99.7 |
| O=C(COc1ccc(S(=O)(=O)N2CCCC2)cc1Cl)Nc1ccc2c(c1)OCCO2 [CBK268559] | 116 |
| C[C@@H]1CN(C(=O)OCCc2cccs2)C[C@H](C)O1 [CBK200416] | 95.5 |
| Cc1cc(N)n(-c2nc3c(cnn3-c3ccc(C)c(C)c3)c(=O)[nH]2)n1 [CBK287646] | 97.8 |
| O=C(CSc1ccc(-c2ccncc2)nn1)Nc1ccc(F)cc1 [CBK287297] | 91 |
| COC(=O)c1cc(NC(=O)OC(C)(C)C)ccc1O [CBK016529] | 86 |
| C#CCNS(=O)(=O)c1cccc(C(=O)NC2CCOc3ccccc32)c1 (stereo not shown) [CBK305430] | 111 |
| CN(C)CCCC(=O)Nc1ccc2[nH]ccc2c1 [CBK159698] | 114 |
| Cc1cc(C)n(CC(=O)N2CCCC(c3cc4cccnc4[nH]3)C2)n1 (stereo not shown) [CBK284928] | 96.2 |
| COc1ccc(C(=O)Nc2cc(C)c3c(=O)oc4ccccc4c3n2)c(OC)c1 [CBK291231] | 94.5 |
| Cc1cccc(C(=O)NCCc2nc3ccccc3[nH]2)c1 [CBK263493] | 100 |
| CC1(C)CC(=O)c2sc(NC(=O)Cc3ccc(Cl)c(Cl)c3)nc2C1 [CBK144103] | 93.7 |
| CC(C)(C)C1=CC2=NC3(CCCCC3)[C@@H]3C[C@@H](O)[C@@H](O)[C@@H]3N2O1 [CBK303235] | 111 |
| O=[N+]([O-])c1ccc(Oc2cccc3cccnc23)c(C(F)(F)F)c1 [CBK002739] | 80.6 |
| NC(=O)C1(Cc2ccc(-c3ccccc3)cc2)CCN(C(=O)Cc2ccccc2)CC1 [CBK285771] | 115 |
| CC(C)[C@H](CO)n1c(=O)[nH]c2ncc(-c3cccc(/C=C/C(=O)O)c3)nc21 [CBK065051] | 92.5 |

| SMILES | viability at 28.5 h, 10 µM [%] |
| --- | --- |
| O=S(=O)(Nc1cc(O[C@@H]2CCNC2)c2occc2c1)c1ccccc1Br [CBK200020C] | 89.6 |
| CC(C)NC(=O)c1sc2ccccc2c1C1CCN(C(=O)CCc2ccccc2)C1 (stereo not shown) [CBK285874] | 99.2 |
| O=C(CSc1ccc(Cl)cc1)Nc1ccc(CN2CCOCC2)cc1 [CBK305855] | 89 |
| O=C(CCc1ccncc1)N1CCOC(c2ccc(F)cc2F)C1 (stereo not shown) [CBK304692] | 98.3 |
| Cc1noc(C)c1CC(=O)Nc1cccc(CN2CCCCCC2)c1 [CBK281407] | 105 |
| C=C(C)Cn1c(-c2ccc(N)cc2)nc2ccccc21 [CBK287581] | 89.2 |
| O=C(c1nn2c(C(F)(F)F)cc(-c3ccccc3)nc2c1Br)N1CCCCC1 [CBK051497] | 97.6 |
| CN(C)c1nc(N(C)CC2(CO)CCOCC2)ncc1F [CBK307091] | 110 |
| Oc1ccc(-c2n[nH]c(=S)n2-c2ccccc2)cc1 [CBK014887] | 113 |
| CN1CCN(C(=O)c2ccccc2N(Cc2ccccc2)S(C)(=O)=O)CC1 [CBK266267] | 101 |
| CCOc1cc(-c2noc(CCC(=O)N3CCN(C)CC3)n2)ccc1OC [CBK269513] | 105 |
| COc1cccc(NC(=S)NCCc2ccccn2)c1 [CBK265245] | 96.9 |
| O=C(NCc1ccccc1)c1cnccc1C(F)(F)F [CBK200194] | 92.3 |
| O=C(O)CCC(=O)N1N=C(c2ccccc2)CC1c1ccc2nccnc2c1 (stereo not shown) [CBK266650] | 86.1 |
| O=C(CSc1ncccc1C(=O)O)Nc1ccc(Oc2ccccc2)cc1 [CBK266340] | 106 |
| O=C(NCc1ccc(Cl)cc1)N(Cc1cccnc1)Cc1ccc2c(c1)OCO2 [CBK159449] | 97 |
| O=C(Nc1ccccc1-n1cnnn1)c1ccccc1Cl [CBK287994] | 95 |
| NC(=O)COc1ccc(CNC(=O)CN2CCc3ccccc32)cc1 [CBK306330] | 96.1 |
| CCn1cc(C(=O)N2CCCC2c2nccs2)c(=O)c2ccc(C)nc21 (stereo not shown) [CBK307171] | 86.4 |
| O=C(c1ccccn1)N1CCN(CCc2ccccc2)CC1 [CBK200201] | 99.1 |
| CC(c1ccccc1)N1Cc2cccc(C(=O)O)c2C1=O (stereo not shown) [CBK291252] | 97.6 |
| Cn1c(C2CC(=O)N(c3ccc(Cl)cc3)C2)nc2ccccc21 (stereo not shown) [CBK287783] | 87.1 |

| SMILES | viability at 28.5 h, 10 µM [%] |
| --- | --- |
| Cc1nc2n(CC#N)c3ccccc3n2n1 [CBK062670] | 99.7 |
| CCC(C)(C)c1ccc(S(=O)(=O)N(C)CCC#N)cc1 [CBK043395] | 118 |
| Cn1nccc1C(=O)NC(Cc1cccs1)c1nccs1 (stereo not shown) [CBK285055] | 102 |
| Cc1cc(C)c2c(CC(=O)N(C)CCN(C)C)c(C)[nH]c2c1 [CBK282732] | 83.6 |
| CCCCCn1c(=O)c(C(=O)NCc2ccc(Cl)cc2)c(O)c2ccccc21 [CBK291131] | 117 |
| Cc1ccc(-c2cc(C(F)(F)F)n3ncc(C(=O)NCc4c(C)nn(C)c4C)c3n2)cc1 [CBK293956] | 106 |
| O=C(Nc1ccc2ncccc2c1)c1cccnc1 [CBK159820] | 94.1 |
| O=C(C1CCCC1)N1CCC(c2nnc3n2CCCCC3)CC1 [CBK284612] | 103 |
| CCN(CC)C(=O)C1CCCN(C(=O)NCCN2CCOCC2)C1 (stereo not shown) [CBK156128] | 96.1 |
| O=C(O)C1CCCCC1C(=O)NCCCN1CCOCC1 (stereo not shown) [CBK286903] | 83.4 |
| Cn1cc(CN2CCCC(c3cc4ccccc4cn3)C2)cn1 (stereo not shown) [CBK285042] | 101 |
| CC(C)Nc1cncc(OCCCc2ccncc2)n1 [CBK115881] | 90.6 |
| Cc1nc(N2CCCC2)ncc1-c1cc(O)nc(N2CCCCC2)n1 [CBK288226] | 92.3 |
| O=C(O)CCSc1nc2ccccc2[nH]1 [CBK262056] | 96.2 |
| Clc1ccc(-c2ccc(CNCCCN3CCOCC3)o2)cc1 [CBK269562C] | 90.5 |
| O=C(O)c1cccc(-c2ccc(/C=N/Nc3ccc([N+](=O)[O-])cn3)o2)c1 [CBK263196] | 89.9 |
| CS(=O)(=O)c1ccc(CN2C[C@@H]3OCC(=O)N(c4ccccc4)[C@@H]3C2)cc1 [CBK289237] | 93.2 |
| Cc1ccccc1COc1cccn2c(N(C)CC3CCCO3)c(C)nc12 (stereo not shown) [CBK147231] | 115 |
| CN(C)Cc1ccc(-c2cc3occ(-c4ccccc4)c3c(=O)n2C)cc1 [CBK025372] | 103 |
| Cc1ccc(OCCOCCN(C)C)c(Cl)c1 [CBK265493G] | 111 |
| O=C1c2cccc3cccc(c23)C(=O)N1CC1CCN(CC(O)COCc2ccccc2)CC1 (stereo not shown) [CBK074407C] | 84.4 |

Same assay, conditions: human, hela cells, % viability, bulk resorufin, single well

| SMILES | viability at 28.5 h, 10 µM [%] |
| --- | --- |
| CS(=O)(=O)c1ccc(-c2ccc3c(c2)COC2(CCN(C(=O)Cc4cccc(C(F)(F)F)c4)CC2)O3)cn1 [CBK160595] | 114 |

— publication PMC12040169 (PLOS Biology, 2025)
